In ChEMBL document CHEMBL1201862, “PubChem BioAssay data set” (2004):
The source made the active and inactive calls.

Key:
[1] = blockers of HIV-1 ZM109 envelope-driven cell-cell fusion – HeLa effector, CEM target cells, luciferase, cherry-pick, dose response (AID 652058); format: functional, cell-based;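 also: luciferase signal from HIV-1 Env mediated cell-cell fusion of effector and target cells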
[2] = viability loss in CEM21 cells – cell-based, CellTiter-Glo luminescence, cherry-picked, cytotoxicity control for viral fusion inhibitor project, dose response (AID 652042); format: functional;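 also: potency for signal decrease meaning cytotoxicity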
[3] = HIV-1 AD8 envelope cell-cell fusion blockers – cherry-pick, dose response (AID 652062); format: functional, cell-based;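 also: luciferase signal from cell-cell fusion driven by HIV-1 clade B AD8 Env; potency is for inhibitors of fusion seen as a drop in luminescence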
[4] = blockers of HIV-1 envelope-mediated cell-cell fusion – cherry-pick, dose response (AID 652057); format: functional, cell-based
[5] = target: Heat shock protein HSP 90-alpha (Homo sapiens, UniProt P07900); format: functional, organism-based
[6] = target: DNA dC->dU-editing enzyme APOBEC-3A (Homo sapiens, UniProt P31941); assay: A3A deaminase inhibition for selectivity – biochemical, dose response (AID 504722); format: functional
[7] = NIH-3T3 fibroblast cytotoxicity, dose response, cytotoxicity control, cell-based, fluorescence, Alamar Blue, secondary assay (AID 2327); format: functional;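 also: NIH-3T3 mouse fibroblasts cultured with fluconazole at 8 µg/mL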
[8] = fluconazole-exposed Candida albicans growth modulators – fluorescence, retest, confirmation (AID 2467); format: functional, cell-based
[9] = target: DNA dC->dU-editing enzyme APOBEC-3G (Homo sapiens, UniProt Q9HC16); assay: Dose Response confirmation of small molecule APOBEC3G DNA Deaminase Inhibitors via a fluorescence-based single-stranded DNA deaminase assay. [Related pubchem assays (depositor defined):AID493012, AID493028]; format: functional
[10] = target: T1, Polyadenylate-binding protein 1 (Homo sapiens, UniProt P11940); assay: MLLE binding blockers, Cy5 peptide tracer – biochemical, fluorescence polarization, Cy5-PAM2 peptide, secondary, miRNA deadenylation inhibitor project, dose response (AID 602260); format: functional; settings: read-out: IC50_Mean
[11] = target: T1, Polyadenylate-binding protein 1; assay: MLLE domain peptide-binding blockers, IC50 – biochemical, fluorescence polarization, FITC-PAM2 peptide, dose response (AID 602259); format: functional; settings: read-out: IC50_Mean
cells [12] = format: functional, cell-based
cells [13] = format: functional, cell-based; remark: listed apart in the source
[14] = target: T2, Calpain-2 catalytic subunit (Sus scrofa, UniProt P43367); assay: m-calpain protease blockers, concentration series – biochemical, fluorogenic peptide substrate, dose response (AID 1420); format: functional
T2 sequence (P43367 whole entry): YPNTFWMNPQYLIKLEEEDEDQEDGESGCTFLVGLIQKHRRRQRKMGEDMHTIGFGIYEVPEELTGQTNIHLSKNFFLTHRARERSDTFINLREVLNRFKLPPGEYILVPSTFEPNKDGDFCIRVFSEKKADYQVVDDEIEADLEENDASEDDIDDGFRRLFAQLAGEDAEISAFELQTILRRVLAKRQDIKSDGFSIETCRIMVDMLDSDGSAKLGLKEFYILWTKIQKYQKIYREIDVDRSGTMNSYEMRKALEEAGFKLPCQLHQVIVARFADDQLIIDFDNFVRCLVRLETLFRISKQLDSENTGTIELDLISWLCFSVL

[15] = THP-1 cell cytotoxicity, dose response, cytotoxicity control for non-replicating M. tuberculosis project (AID 489025); format: functional
HEK293 [16] = assay: cells; settings: Homo sapiens
HEK293 [17] = assay: cells; settings: Homo sapiens; remark: listed apart in the source
[18] = target: FAD-linked sulfhydryl oxidase ALR (Homo sapiens, UniProt P55789); assay: ALR-catalysed DTT oxidation blockers – biochemical, H2O2 detection, luminescence, cherry-pick, dose response (AID 493248)
[19] = viability loss in THP-1 monocytes – THP-1 cells, cytotoxicity control for Vif-APOBEC3G degradation inhibitor project, dose response (AID 1117359); format: functional; settings: THP-1
[20] = viability of uninfected HEp-2 cells – cell-based, HTS, cytotoxicity control for RSV inhibitor project, dose response (AID 2410); format: functional; settings: human respiratory syncytial virus
[21] = NIH3T3 cell viability loss – ATP luminescence, mouse fibroblasts, counter-screen, dose response (AID 2010); format: functional, cell-based;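 also: cells exposed to compound for about 90 hours before reading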
[22] = viability of HCT116 lacking mutant beta-catenin – cell-based, human colon tumor, dose response (AID 1045); format: functional;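 also: HCT116 colon tumor cells with beta catenin knocked out; cells exposed to compound for 60 hours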
[23] = viability of PTEN-deleted HCT116 cells – cell-based, HCT116 PTEN knockout, dose response (AID 1047); format: functional;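 also: HCT116 colon tumor cells with PTEN knocked out; cells exposed to compound for 60 hours before readout; potency for loss of cell viability measured by luminescence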
[24] = Trypanosoma cruzi growth suppression in host cells – NIH3T3 host cells, beta-gal luminescence, confirmation (AID 2044); format: functional, cell-based;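 also: intracellular parasites grown in NIH/3T3 mouse fibroblasts as host cells; luminescent beta-galactosidase reporter signal from transgenic T. cruzi replicating inside host cells; inhibitors lower the luminescence signal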
[25] = target: Induced myeloid leukemia cell differentiation protein Mcl-1 (Homo sapiens, UniProt Q07820); format: functional
[26] = blockade of melanocortin 4 receptor signaling – cell-based, plate reader, cherry pick, counter-screen for LGR2 antagonist project, dose response (AID 743444); format: functional;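 also: transfected HEK 293 cells stimulated with alpha-MSH peptide; potency of inhibitors of the alpha-MSH evoked signal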
[27] = blockers of bursicon-stimulated LGR2 cAMP reporter – cell-based, HEK293, CRE-luciferase reporter, cherry pick, set 2, dose response (AID 743343); format: functional;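 also: transfected cells were stimulated with diluted bursicon conditioned medium after compound addition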
Cytochrome P450 2C19 = Cytochrome P450 2C19 (Homo sapiens, UniProt P33261); assay: Cytochrome panel assay with activity outcomes. Panel member name: p450-cyp2c19 Compounds with AC50 equal or less than 10 uM are considered active; format: functional; settings: read-out: AC50
Caspase-3 = target: T3, Caspase-3 (Homo sapiens, UniProt P42574); format: functional;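 also: Dose-response selectivity test against caspase-3 for candidate inhibitors of sentrin-specific proteases (SENPs)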
T3 sequence (P42574 whole entry): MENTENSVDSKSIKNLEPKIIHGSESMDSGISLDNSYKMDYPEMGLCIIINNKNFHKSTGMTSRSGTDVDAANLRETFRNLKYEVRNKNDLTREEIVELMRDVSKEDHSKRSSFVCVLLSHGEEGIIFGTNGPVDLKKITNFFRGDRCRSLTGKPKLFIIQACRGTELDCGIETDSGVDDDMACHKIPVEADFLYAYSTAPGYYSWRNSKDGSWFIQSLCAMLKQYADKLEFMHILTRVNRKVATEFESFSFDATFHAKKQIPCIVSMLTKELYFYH

[28] = target: T4, Sentrin-specific protease 8 (Homo sapiens, UniProt Q96LD8); format: functional;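 also: luminescence read-out of SENP8 inhibition, dose-response confirmation following an ultra-high-throughput screen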
T4 sequence (Q96LD8 whole entry): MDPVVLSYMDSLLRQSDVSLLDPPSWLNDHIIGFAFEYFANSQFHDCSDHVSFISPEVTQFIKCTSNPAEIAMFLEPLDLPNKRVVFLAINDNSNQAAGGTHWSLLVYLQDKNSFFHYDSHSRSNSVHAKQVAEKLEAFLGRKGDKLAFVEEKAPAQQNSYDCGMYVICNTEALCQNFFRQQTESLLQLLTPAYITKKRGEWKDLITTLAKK

[29] = target: T5, Sentrin-specific protease 6 (Homo sapiens, UniProt Q9GZR1); format: functional;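 also: Luminescence-based dose-response confirmatory assay of SENP6 inhibition, following up an ultra-high-throughput screen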
T5 sequence (Q9GZR1 whole entry): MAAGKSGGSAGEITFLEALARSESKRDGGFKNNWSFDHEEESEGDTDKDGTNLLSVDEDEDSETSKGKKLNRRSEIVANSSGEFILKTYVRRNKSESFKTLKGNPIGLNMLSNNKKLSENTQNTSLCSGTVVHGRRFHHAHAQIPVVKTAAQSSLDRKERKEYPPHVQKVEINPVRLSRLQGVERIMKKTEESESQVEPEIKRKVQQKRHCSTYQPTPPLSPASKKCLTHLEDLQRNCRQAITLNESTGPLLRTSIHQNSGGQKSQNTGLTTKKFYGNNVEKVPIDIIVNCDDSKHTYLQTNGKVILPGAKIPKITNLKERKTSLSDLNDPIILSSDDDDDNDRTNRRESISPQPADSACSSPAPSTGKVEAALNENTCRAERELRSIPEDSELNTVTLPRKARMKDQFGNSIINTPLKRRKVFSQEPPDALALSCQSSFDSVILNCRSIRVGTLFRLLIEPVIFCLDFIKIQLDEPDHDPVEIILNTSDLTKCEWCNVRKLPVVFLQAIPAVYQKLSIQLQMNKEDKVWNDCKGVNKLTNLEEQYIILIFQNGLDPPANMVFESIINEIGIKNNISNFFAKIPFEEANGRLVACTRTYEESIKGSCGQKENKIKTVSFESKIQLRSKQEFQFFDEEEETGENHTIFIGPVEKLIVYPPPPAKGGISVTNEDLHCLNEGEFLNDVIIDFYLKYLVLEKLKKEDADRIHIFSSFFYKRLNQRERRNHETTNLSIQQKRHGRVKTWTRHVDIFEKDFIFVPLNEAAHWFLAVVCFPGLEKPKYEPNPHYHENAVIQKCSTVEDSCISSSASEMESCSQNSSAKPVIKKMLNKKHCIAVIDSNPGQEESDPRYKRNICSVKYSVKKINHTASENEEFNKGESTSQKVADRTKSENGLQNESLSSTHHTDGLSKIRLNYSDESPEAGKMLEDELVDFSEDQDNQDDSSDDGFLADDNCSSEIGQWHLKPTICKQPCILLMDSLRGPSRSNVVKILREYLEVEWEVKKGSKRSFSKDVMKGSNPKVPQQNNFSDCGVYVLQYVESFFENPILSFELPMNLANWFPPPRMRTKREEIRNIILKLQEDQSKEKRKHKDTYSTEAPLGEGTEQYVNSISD

T1 sequence (P11940 whole entry, the tested form may be a part): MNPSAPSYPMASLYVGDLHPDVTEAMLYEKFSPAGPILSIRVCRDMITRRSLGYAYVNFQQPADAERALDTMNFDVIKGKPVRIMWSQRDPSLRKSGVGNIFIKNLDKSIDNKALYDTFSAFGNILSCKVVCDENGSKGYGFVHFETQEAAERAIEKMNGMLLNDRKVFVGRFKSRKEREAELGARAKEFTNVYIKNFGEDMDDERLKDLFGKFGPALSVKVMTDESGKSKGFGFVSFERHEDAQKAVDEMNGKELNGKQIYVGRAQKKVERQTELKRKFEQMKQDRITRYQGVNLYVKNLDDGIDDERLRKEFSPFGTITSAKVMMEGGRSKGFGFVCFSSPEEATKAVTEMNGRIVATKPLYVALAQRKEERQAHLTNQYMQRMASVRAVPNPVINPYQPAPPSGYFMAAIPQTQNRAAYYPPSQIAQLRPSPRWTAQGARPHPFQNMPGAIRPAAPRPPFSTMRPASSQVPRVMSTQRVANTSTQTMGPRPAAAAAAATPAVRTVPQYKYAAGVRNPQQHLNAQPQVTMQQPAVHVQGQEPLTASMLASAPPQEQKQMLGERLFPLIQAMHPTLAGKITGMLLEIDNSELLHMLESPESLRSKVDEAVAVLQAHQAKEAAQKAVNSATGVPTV
DNA dC->dU-editing enzyme APOBEC-3A, sequence (P31941 whole entry): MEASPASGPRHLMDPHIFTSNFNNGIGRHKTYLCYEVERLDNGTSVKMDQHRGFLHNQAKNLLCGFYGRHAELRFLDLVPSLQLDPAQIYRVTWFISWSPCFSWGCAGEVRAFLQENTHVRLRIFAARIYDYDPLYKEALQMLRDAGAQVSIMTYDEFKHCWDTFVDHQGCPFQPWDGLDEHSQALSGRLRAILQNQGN
DNA dC->dU-editing enzyme APOBEC-3G, sequence (Q9HC16 whole entry): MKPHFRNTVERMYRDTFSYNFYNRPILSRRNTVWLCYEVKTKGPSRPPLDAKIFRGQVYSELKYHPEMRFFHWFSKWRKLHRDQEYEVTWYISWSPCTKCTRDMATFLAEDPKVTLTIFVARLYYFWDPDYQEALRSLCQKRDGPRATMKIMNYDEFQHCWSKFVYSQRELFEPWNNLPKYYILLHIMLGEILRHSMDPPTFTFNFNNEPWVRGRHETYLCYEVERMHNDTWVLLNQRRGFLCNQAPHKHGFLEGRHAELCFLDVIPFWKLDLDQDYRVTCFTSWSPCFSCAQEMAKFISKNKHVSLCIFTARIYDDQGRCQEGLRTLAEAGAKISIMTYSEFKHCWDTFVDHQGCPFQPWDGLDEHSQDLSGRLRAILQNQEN
Induced myeloid leukemia cell differentiation protein Mcl-1, sequence (Q07820 whole entry): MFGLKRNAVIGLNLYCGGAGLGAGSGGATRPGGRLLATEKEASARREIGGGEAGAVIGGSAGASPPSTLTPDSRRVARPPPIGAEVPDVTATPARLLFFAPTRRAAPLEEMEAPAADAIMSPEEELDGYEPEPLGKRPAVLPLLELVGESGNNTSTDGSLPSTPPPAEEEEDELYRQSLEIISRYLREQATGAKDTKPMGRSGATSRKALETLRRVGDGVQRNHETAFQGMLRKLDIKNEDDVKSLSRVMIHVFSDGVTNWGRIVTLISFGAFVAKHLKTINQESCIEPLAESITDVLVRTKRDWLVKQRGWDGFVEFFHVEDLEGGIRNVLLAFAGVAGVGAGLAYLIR
FAD-linked sulfhydryl oxidase ALR, sequence (P55789 whole entry): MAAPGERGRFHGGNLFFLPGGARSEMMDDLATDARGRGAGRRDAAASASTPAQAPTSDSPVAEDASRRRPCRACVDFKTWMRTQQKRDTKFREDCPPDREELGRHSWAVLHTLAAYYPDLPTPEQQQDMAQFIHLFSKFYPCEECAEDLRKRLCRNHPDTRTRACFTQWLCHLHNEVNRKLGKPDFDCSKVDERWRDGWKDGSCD
Cytochrome P450 2C19, sequence (P33261 whole entry): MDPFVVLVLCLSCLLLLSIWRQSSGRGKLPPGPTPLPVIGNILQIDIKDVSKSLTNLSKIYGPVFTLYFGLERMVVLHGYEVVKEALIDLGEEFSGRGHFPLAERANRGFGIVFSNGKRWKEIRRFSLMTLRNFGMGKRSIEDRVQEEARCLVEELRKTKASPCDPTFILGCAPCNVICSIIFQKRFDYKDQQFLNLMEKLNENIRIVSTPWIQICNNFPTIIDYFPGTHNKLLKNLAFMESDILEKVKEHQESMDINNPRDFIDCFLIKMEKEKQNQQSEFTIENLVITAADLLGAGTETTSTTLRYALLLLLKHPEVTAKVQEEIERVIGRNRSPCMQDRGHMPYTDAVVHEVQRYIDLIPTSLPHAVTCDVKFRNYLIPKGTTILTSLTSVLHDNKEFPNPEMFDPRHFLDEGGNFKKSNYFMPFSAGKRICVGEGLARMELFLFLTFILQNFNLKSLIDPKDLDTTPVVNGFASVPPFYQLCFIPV

## O=C(C[C@H]1CC[C@@H](NC(=O)c2cccc(F)c2)[C@@H](CO)O1)NCc1ccc(Oc2ccccc2)cc1
[1]
  AC50: 1.21 µM (active)
[2]
  AC50: 58.1 µM (active)
[3]
  AC50: 1.2 µM (active)
[4]
  AC50: 0.525 µM (active)

## Cc1ccc(NC(S)=NCC23C=CC(O2)C2C(=O)N(c4ccc(C)cc4)C(=O)C23)cc1 (stereo not drawn)
[5]
  AC50: 4.6 µM (active)

## Sc1nnc(-c2ccccc2)n1/N=C/c1cccs1
[6]
  IC50: > 100 µM (inactive)
[7]
  EC50: > 160 µM (inactive)
[8]
  EC50: 2.56 µM (active)
[9]
  IC50: 1.81 µM (active)

## N#CC1=C2SCN(c3ccccc3)CN2C(=O)CC1c1c(Cl)cccc1Cl (stereo not drawn)
[6]
  IC50: > 100 µM (inactive)
[9]
  IC50: 4.44 µM (active)

## CN(C)c1oc(-c2ccccc2[N+](=O)[O-])nc1C#N
[10]
  IC50: > 66 µM (inactive)
[11]
  IC50: > 66 µM (inactive)

## CCN(CC(=O)Nc1ccc2c(c1)OCCO2)CC(=O)Nc1ccc2c(c1)OCO2
Cells [12]
  EC50: > 350 µM (not active)
Cells [13]
  EC50: > 350 µM (not active)

## Cc1ccc(C)c(N2CCN(C(=O)C3CCCCN3S(=O)(=O)c3ccc(F)cc3)CC2)c1 (stereo not drawn)
[14]
  IC50: 7.84 µM (not active)

## Cn1cccc1/C=N/n1c(S)nnc1-c1ccco1
[6]
  IC50: > 100 µM (inactive)
[9]
  IC50: 3.92 µM (active)

## Cc1ccc2c(c1)C(=O)C(=O)N2CCCOc1ccccc1
[15]
  CC50: > 40 µM (active)

## Cc1[nH]n(C2=NCCS2)c(=O)c1N=Nc1ccccc1
[10]
  IC50: > 66 µM (inactive)
[11]
  IC50: > 66 µM (inactive)

## C=CCn1c(S)nnc1-c1csc(-c2ccc(OC)c(OC)c2)n1
HEK293 [16]
  EC50: > 0.736 µM (active)
HEK293 [17]
  EC50: > 59.7 µM (inactive)

## O=C(O)c1ccccc1NC(c1ccccc1)c1ccc2cccnc2c1O (stereo not drawn)
[5]
  AC50: 7.23 µM (active)

## COc1cccc(/C=N/n2c(S)nnc2-c2cc(C)[nH]n2)c1OC
[18]
  AC50: 4.04 µM (active)
[6]
  IC50: > 100 µM (inactive)
[9]
  IC50: 3.89 µM (active)

## CC1Cc2ccccc2N1C(=O)COC(=O)Cn1nnc(-c2ccccc2)n1 (stereo not drawn)
[14]
  IC50: 8.56 µM (not active)

## C[C@H](C(=O)N(C)C[C@@H]1OCc2ccccc2-c2c(n(C)c3ccccc23)C(=O)N([C@@H](C)CO)C[C@H]1C)c1ccccc1
[1]
  AC50: 12 µM (active)
[2]
  AC50: 22.5 µM (active)
[3]
  AC50: 8.67 µM (active)
[4]
  AC50: 4.94 µM (active)

## COc1cc(SC)ccc1C(=O)Nc1c(C)cccc1C
[19]
  CC50: > 40 µM (active)

## Cc1ccc2[nH]c(C)c(/C=N/Nc3nc4ccccc4s3)c2c1
[20]
  CC50: 14.6 µM (active)
[5]
  AC50: 5.3 µM (active)
[21]
  EC50: > 60 µM (inconclusive)
[22]
  EC50: 19.7 µM (active)
[23]
  EC50: 18 µM (active)
[24]
  EC50: 2.24 µM (active)

## CC(=O)NNC(=O)CN1C(=O)/C(=C/c2ccccc2)SC1=S
[10]
  IC50: > 66 µM (inactive)
[11]
  IC50: > 66 µM (inactive)

## Cc1ccc(N2C(=O)C3C4C=CC(CN=C(S)N5CCN(c6ccccc6)CC5)(O4)C3C2=O)cc1 (stereo not drawn)
[5]
  AC50: 14.9 µM (active)

## O=C(/C=C/c1cccs1)N1CCN(c2ccc(O)cc2)CC1
[19]
  CC50: > 40 µM (active)
[25]
  IC50: 5.63 µM (active)

## O=c1[nH]c(=O)n([C@@H]2O[C@H](CO)[C@@H](O)[C@H]2O)cc1F [5-FLUOROURIDINE]
HEK293 [16]
  EC50: > 59.6 µM (inactive)
HEK293 [17]
  EC50: > 59.6 µM (inactive)

## CCOC(=O)C1=C(N)N2C(=O)C(C)SC2=C(C(=O)OC)C1c1ccccc1OC (stereo not drawn)
[5]
  AC50: 0.982 µM (active)

## CC(C)COc1cccc(C(=O)NNC(=O)C2COc3ccccc3O2)c1 (stereo not drawn)
Cells [12]
  EC50: > 350 µM (not active)
Cells [13]
  EC50: > 350 µM (not active)

## CSc1ccccc1NC(=O)COc1ccccc1C
[14]
  IC50: 8.86 µM (not active)

## CSc1ccc(NC(=O)Nc2cc(C)ccn2)cc1
[26]
  AC50: 9.27 µM (active)
[27]
  AC50: 3.7 µM (active)
Cytochrome P450 2C19
  AC50: 3.98 µM (inconclusive)

## Cc1ccc(Cl)c2sc(NC(=O)C3=COCCO3)nc12
Caspase-3
  IC50: 63.4 µM (active)
[28]
  IC50: > 100 µM (inactive)
[29]
  IC50: 13.1 µM (active)

## COc1ccccc1OCC(=O)Nn1c(=S)[nH]c2ncccc2c1=O
[10]
  IC50: > 66 µM (inactive)
[11]
  IC50: > 66 µM (inactive)
